# Measured values published in paper PMC11127949, “Selective targeting of IRAK1 attenuates low molecular weight hyaluronic acid-induced stemness and non-canonical STAT3 activation in epithelial ovarian cancer” (Cell Death & Disease, 2024).
# Molecular target: T1, IRAK1 (Homo sapiens, UniProt P51617)
# T1 construct: active recombinant IRAK1 enzyme
# Assay: SPR ([…] model); supported by KINOMEscan active-site competition binding and CETSA in A2780 cells
# T1 sequence (P51617 whole entry): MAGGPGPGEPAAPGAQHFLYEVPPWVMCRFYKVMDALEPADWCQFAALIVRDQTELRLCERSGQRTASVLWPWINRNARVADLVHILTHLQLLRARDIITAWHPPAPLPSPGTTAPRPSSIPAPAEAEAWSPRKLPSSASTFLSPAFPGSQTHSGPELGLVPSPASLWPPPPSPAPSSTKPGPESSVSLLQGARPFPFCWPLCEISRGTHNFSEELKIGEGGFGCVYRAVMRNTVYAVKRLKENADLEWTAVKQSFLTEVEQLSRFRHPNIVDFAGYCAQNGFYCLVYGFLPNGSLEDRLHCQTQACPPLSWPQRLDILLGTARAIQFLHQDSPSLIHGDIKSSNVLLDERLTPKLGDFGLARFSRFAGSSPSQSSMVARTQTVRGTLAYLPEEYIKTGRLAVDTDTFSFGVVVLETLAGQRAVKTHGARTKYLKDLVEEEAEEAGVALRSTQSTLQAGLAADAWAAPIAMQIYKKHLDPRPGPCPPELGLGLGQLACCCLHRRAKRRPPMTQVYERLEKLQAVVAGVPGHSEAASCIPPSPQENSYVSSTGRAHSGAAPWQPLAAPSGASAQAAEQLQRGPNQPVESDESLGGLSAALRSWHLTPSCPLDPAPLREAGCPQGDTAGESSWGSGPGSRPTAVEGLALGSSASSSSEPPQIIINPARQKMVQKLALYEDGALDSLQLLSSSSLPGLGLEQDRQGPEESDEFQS
smiles,measurement,value
O=C(NO)c1ccc2[nH]c(=O)c(CCCc3ccccc3)nc2c1 [TCS2210],Kd,1760 nM
